In the test the target is PRS (prolyl-tRNA synthetase) protein, PRS portion of EPRS (Homo sapiens (Human), UniProt P07814). Briefly: PRS enzyme activity inhibition experiment ([3H]proline, liquid scintillation). To be noted: purified PRS protein, 37° C. for 5 to 10 minutes. The test is classed as biochemical. The procedure:
In order to confirm the biological activities of the compounds prepared in Examples, % inhibition or IC50 values of PRS enzyme ([…]) activities were calculated.
Specifically, the portion corresponding to PRS in cDNA of EPRS was subcloned, and the obtained high-purity PRS protein was purified and used in the experiment. The compounds (1 μM) prepared in Examples were added into the reaction buffer (20 mM KPO4 (pH 7.4), 6 mM MgAc, 5 mM ATP, […] tRNA, 0.5 mM DTT, […][^3H]proline (1 mCi/mL)) and allowed to react at 37° C. for 5 to 10 minutes. The reaction was terminated with 3M paper that was in advance dried by addition of 5% TCA. The radioactivity was measured using a liquid scintillation counter.
% Inhibition and IC50 values of the respective compounds were calculated and analyzed using Microsoft Excel or Sigma Plot 8.0. In Tables 1 to 3, the results are divided into A, B and C according to the range of IC50. The case where the derived IC50 is 100 nM or less is represented by “A”, the case where the IC50 is 100 to 500 nM is represented by “B”, and the case where the IC50 is 500 nM or higher is represented by “C”.

PRS (prolyl-tRNA synthetase) protein, PRS portion of EPRS, sequence (P07814 1007-1512): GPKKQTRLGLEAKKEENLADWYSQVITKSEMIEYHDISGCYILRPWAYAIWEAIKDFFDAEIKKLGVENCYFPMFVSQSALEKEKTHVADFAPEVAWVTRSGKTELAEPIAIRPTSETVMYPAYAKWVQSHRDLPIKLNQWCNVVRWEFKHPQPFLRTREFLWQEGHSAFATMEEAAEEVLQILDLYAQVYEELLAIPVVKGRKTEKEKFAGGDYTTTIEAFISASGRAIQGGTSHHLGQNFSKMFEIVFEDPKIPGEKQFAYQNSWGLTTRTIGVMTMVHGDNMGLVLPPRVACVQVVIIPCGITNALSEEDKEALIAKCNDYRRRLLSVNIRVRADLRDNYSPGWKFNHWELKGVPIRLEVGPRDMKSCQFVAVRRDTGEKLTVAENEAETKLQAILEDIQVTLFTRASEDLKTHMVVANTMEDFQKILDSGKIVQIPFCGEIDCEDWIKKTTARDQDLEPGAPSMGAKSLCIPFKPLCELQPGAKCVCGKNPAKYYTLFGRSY

The IC50 is the concentration that inhibits the measured activity by half. `COC(=O)c1cn(CCC[C@H]2NCCC[C@@H]2O)c2cc(Br)ccc12` [Example 151, methyl 6-bromo-1-(3-((2R,3S)-3-hydroxypiperidin-2-yl)propyl)-1H-indole-3-carboxylate] had an IC50 of 100 to 500 nM.

In turn, `O[C@H]1CCCN[C@@H]1/C=C/Cn1cnc2ccc(-c3cccc(F)c3)cc21` [Example 191, (2R,3S)-2-((E)-3-(6-(3-fluorophenyl)-1H-benzo[d]imidazol-1-yl)prop-1-en-1-yl)piperidin-3-ol] yielded an IC50 of 100 to 500 nM. Next, `Cc1cc(-c2cc(Cl)cc3ncn(CCC[C@H]4NCCC[C@@H]4O)c23)c(C)s1` [Example 114, (2R,3S)-2-(3-(5-chloro-7-(2,5-dimethylthiophen-3-yl)-1H-benzo[d]imidazol-1-yl)propyl)piperidin-3-ol]: 100 to 500 nM; `O[C@H]1CCCN[C@@H]1CCCn1cnc2cc(Cl)cc(-c3cn[nH]c3)c21` [Example 81, (2R,3S)-2-(3-(5-chloro-7-(1H-pyrazol-4-yl)-1H-benzo[d]imidazol-1-yl)propyl)piperidin-3-ol]: not below 500 nM. The result for `Cc1c(Cl)ccc2c1ncn2C/C=C/[C@H]1NCCC[C@@H]1O` [Example 173, (2R,3S)-2-((E)-3-(5-chloro-4-methyl-1H-benzo[d]imidazol-1-yl)prop-1-en-1-yl)piperidin-3-ol] reads 100 to 500 nM. `O[C@H]1CCN[C@@H]1/C=C/Cn1cnc2cc(Cl)c(Cl)cc21` [Example 230, (2R,3S)-2-((E)-3-(5,6-dichloro-1H-benzo[d]imidazol-1-yl)prop-1-en-1-yl)pyrrolidin-3-ol] gave an IC50 not below 500 nM.

Compound `O[C@H]1CCCN[C@@H]1CCCn1cnc2cc(Cl)cc(-c3ccon3)c21` [Example 90, (2R,3S)-2-(3-(5-chloro-7-(Isoxazol-3-yl)-1H-benzo[d]imidazol-1-yl)propyl)piperidin-3-ol] returned a half-maximal inhibitory concentration (IC50) of 100 to 500 nM. Next, `Cc1c(Cl)ccc2c1ncn2C/C(F)=C/[C@H]1NCCC[C@@H]1O` [Example 217, (2R,3S)-2-((Z)-3-(5-chloro-4-methyl-1H-benzo[d]imidazol-1-yl)-2-fluoroprop-1-enyl)piperidin-3-ol]: not below 500 nM.

For `CC(C)(C)n1cc(-c2cc(Cl)cc3ncn(CCC[C@H]4NCCC[C@@H]4O)c23)cn1` [Example 106, (2R,3S)-2-(3-(7-(1-(tert-butyl)-1H-pyrazol-4-yl)-5-chloro-1H-benzo[d]imidazol-1-yl)propyl)piperidin-3-ol], the concentration for half-maximal inhibition (IC50) lay within 100 to 500 nM. The result for `O[C@H]1CCCN[C@@H]1CCCn1nc(C(F)(F)F)c2cc(Cl)ccc21` [Example 156, (2R,3S)-2-(3-(5-chloro-3-(trifluoromethyl)-1H-indazol-1-yl)propyl)piperidin-3-ol] reads not below 500 nM; that for `COC(=O)c1cn(CCC[C@H]2NCCC[C@@H]2O)c2cccc(Cl)c12` [Example 152, methyl 4-chloro-1-(3-((2R,3S)-3-hydroxypiperidin-2-yl)propyl)-1H-indole-3-carboxylate], not below 500 nM; that for `Cn1cc(-c2cc(Cl)cc3ncn(CCC[C@H]4NCCC[C@@H]4O)c23)cn1` [Example 97, (2R,3S)-2-(3-(5-chloro-7-(1-methyl-1H-pyrazol-4-yl)-1H-benzo[d]imidazol-1-yl)propyl)piperidin-3-ol], not above 100 nM. Next, `O[C@H]1CCCN[C@@H]1CCCn1cnc2ccc(Br)c(F)c21` [Example 48, (2R,3S)-2-(3-(6-bromo-7-fluoro-1H-benzo[d]imidazol-1-yl)propyl)piperidin-3-ol]: 100 to 500 nM. The result for `O[C@H]1CCCN[C@@H]1/C=C/Cn1cnc2ccc(-c3cccc(Cl)c3)cc21` [Example 190, (2R,3S)-2-((E)-3-(6-(3-chlorophenyl)-1H-benzo[d]imidazol-1-yl)prop-1-en-1-yl)piperidin-3-ol] reads 100 to 500 nM; that for `O[C@H]1CCCN[C@@H]1/C=C/Cn1cnc2cc(Br)c(Br)cc21` [Example 170, (2R,3S)-2-((E)-3-(5,6-dibromo-1H-benzo[d]imidazol-1-yl)prop-1-en-1-yl)piperidin-3-ol], 100 to 500 nM. `O[C@H]1CCCN[C@@H]1CCCn1cnc2ccc(F)cc21` [Example 8, (2R,3S)-2-(3-(6-fluoro-1H-benzo[d]imidazol-1-yl)propyl)piperidin-3-ol] showed an IC50 not below 500 nM. Consider `O[C@H]1CCCN[C@@H]1CCCn1cnc2c(N3CCCC3)ncnc21` [Example 142, (2R,3S)-2-(3-(6-(pyrrolidin-1-yl)-9H-purin-9-yl)propyl)piperidin-3-ol], for which the IC50 is not below 500 nM.

The compound `Cn1cncc1-c1cc(Cl)cc2ncn(CCC[C@H]3NCCC[C@@H]3O)c12` [Example 96, (2R,3S)-2-(3-(5-chloro-7-(1-methyl-1H-imidazol-5-yl)-1H-benzo[d]imidazol-1-yl)propyl)piperidin-3-ol] returned an IC50 not below 500 nM.

`O=C(O)c1cn(C/C=C/[C@H]2NCCC[C@@H]2O)c2cccc(Cl)c12` [Example 205, 4-chloro-1-((E)-3-((2R,3S)-3-hydroxypiperidin-2-yl)allyl)-1H-indole-3-carboxylic acid] had an IC50 not below 500 nM. In turn, `Cc1sccc1-c1cc(Cl)cc2ncn(CCC[C@H]3NCCC[C@@H]3O)c12` [Example 92, (2R,3S)-2-(3-(5-chloro-7-(2-methylthiophen-3-yl)-1H-benzo[d]imidazol-1-yl)propyl)piperidin-3-ol] gave an IC50 of 100 to 500 nM.

`Cc1c(Br)ccc2c1ncn2CCC[C@H]1NCCC[C@@H]1O` [Example 45, (2R,3S)-2-(3-(5-bromo-4-methyl-1H-benzo[d]imidazol-1-yl)propyl)piperidin-3-ol] registered an IC50 of 100 to 500 nM. Next, `O[C@H]1CCCN[C@@H]1CCCn1cnc2c(F)ccc(Cl)c21` [Example 74, (2R,3S)-2-(3-(7-chloro-4-fluoro-1H-benzo[d]imidazol-1-yl)propyl)piperidin-3-ol]: 100 to 500 nM; `O[C@H]1CCCN[C@@H]1CCCn1cnc2nccc(Cl)c21` [Example 126, (2R,3S)-2-(3-(7-chloro-1H-imidazo[4,5-b]pyridin-1-yl)propyl)piperidin-3-ol]: 100 to 500 nM; `O[C@H]1CCCN[C@@H]1/C=C/Cn1cnc2cc(Cl)cc(F)c21` [Example 183, (2R,3S)-2-((E)-3-(5-chloro-7-fluoro-1H-benzo[d]imidazol-1-yl)prop-1-en-1-yl)piperidin-3-ol]: 100 to 500 nM.

Consider `Cc1ccc2c(c1)ncn2CCC[C@H]1NCCC[C@@H]1O` [Example 14, (2R,3S)-2-(3-(5-methyl-1H-benzo[d]imidazol-1-yl)propyl)piperidin-3-ol], for which the IC50 is not below 500 nM. Next, `CC(C)Cn1cc(-c2cc(Cl)cc3ncn(CCC[C@H]4NCCC[C@@H]4O)c23)cn1` [Example 115, (2R,3S)-2-(3-(5-chloro-7-(1-isobutyl-1H-pyrazol-4-yl)-1H-benzo[d]imidazol-1-yl)propyl)piperidin-3-ol]: 100 to 500 nM; `Cc1c(Cl)ccc2c1ncn2CCC[C@H]1NCCC[C@@H]1O` [Example 46, (2R,3S)-2-(3-(5-chloro-4-methyl-1H-benzo[d]imidazol-1-yl)propyl)piperidin-3-ol]: not above 100 nM; `O[C@H]1CCCN[C@@H]1CCCn1nc(-c2cnn(C(F)F)c2)c2ccc(Cl)cc21` [Example 158, (2R,3S)-2-(3-(6-chloro-3-(1-(difluoromethyl)-1H-pyrazol-4-yl)-1H-indazol-1-yl)propyl)piperidin-3-ol]: not below 500 nM.

For the origin of these results see patent US10981917B2, “Heterocyclic compound, its preparation method, and pharmaceutical composition comprising the same” (Daewoong Pharmaceutical Co., Ltd., priority 2017, dated 2021).
